ChEMBL document CHEMBL1158786, “Triterpenoid saponin anthranilates from Albizia grandibracteata leaves ingested by primates in Uganda” (J Nat Prod, 2005)

How the values were obtained:
KB = experiment: Cytotoxicity against human KB cells; type: functional, cell-based
MCF7 = experiment: Cytotoxicity against human MCF7 cells; type: functional, cell-based

CC(=O)N[C@H]1[C@H](O[C@H]2CC[C@]3(C)[C@H]4CC=C5[C@@H]6CC(C)(C)[C@@H](OC(=O)c7ccccc7N)C[C@]6(C(=O)O[C@@H]6O[C@H](CO[C@@H]7O[C@H](CO)[C@@H](O)[C@H](O)[C@H]7O)[C@@H](O)[C@H](O)[C@H]6O[C@@H]6O[C@@H](C)[C@H](O[C@@H]7OC[C@@H](O)[C@H](O)[C@H]7O)[C@@H](O)[C@H]6O)[C@H](O)C[C@@]5(C)[C@]4(C)CC[C@H]3C2(C)C)O[C@H](CO[C@@H]2O[C@H](C)[C@H](O)[C@H](O)[C@H]2O[C@@H]2OC[C@@H](O)[C@H](O)[C@H]2O)[C@@H](O)[C@@H]1O [GRANDIBRACTEOSIDE B]
IC50 (KB): 2.3 µM | IC50 (MCF7): 1.7 µM

CC(=O)N[C@H]1[C@H](O[C@H]2CC[C@]3(C)[C@H]4CC=C5[C@@H]6CC(C)(C)[C@@H](OC(=O)c7ccccc7N)C[C@]6(C(=O)O[C@@H]6O[C@H](CO)[C@@H](O)[C@H](O)[C@H]6O[C@@H]6O[C@@H](C)[C@H](O[C@@H]7OC[C@@H](O)[C@H](O)[C@H]7O)[C@@H](O)[C@H]6O)[C@H](O)C[C@@]5(C)[C@]4(C)CC[C@H]3C2(C)C)O[C@H](CO[C@@H]2O[C@H](C)[C@H](O)[C@H](O)[C@H]2O[C@@H]2OC[C@@H](O)[C@H](O)[C@H]2O)[C@@H](O)[C@@H]1O [GRANDIBRACTEOSIDE A]
IC50 (KB): 1.3 µM | IC50 (MCF7): 0.4 µM

COc1cccc2c1C(=O)c1c(O)c3c(c(O)c1C2=O)C[C@@](O)(C(=O)CO)C[C@@H]3O[C@H]1C[C@H](N)[C@H](O)[C@H](C)O1 [DOXORUBICIN]
IC50 (KB): 0.1 µM | IC50 (MCF7): 0.1 µM

CC(=O)N[C@H]1[C@H](O[C@H]2CC[C@]3(C)[C@H]4CC=C5[C@@H]6CC(C)(C)[C@@H](OC(=O)c7ccccc7N)C[C@]6(C(=O)O[C@@H]6O[C@H](CO)[C@@H](O)[C@H](O)[C@H]6O[C@@H]6O[C@@H](C)[C@H](O[C@@H]7O[C@@H](CO)[C@H](O)[C@H]7O)[C@@H](O[C@@H]7O[C@H](CO)[C@@H](O)[C@H](O)[C@H]7O)[C@H]6O)[C@H](O)C[C@@]5(C)[C@]4(C)CC[C@H]3C2(C)C)O[C@H](CO[C@@H]2O[C@H](C)[C@H](O)[C@H](O)[C@H]2O[C@@H]2OC[C@@H](O)[C@H](O)[C@H]2O)[C@@H](O)[C@@H]1O [GRANDIBRACTEOSIDE C]
IC50 (KB): 2.3 µM | IC50 (MCF7): 1.7 µM
